Measured values: patent US20230149326A1, “PHARMACEUTICAL COMPOSITION FOR PREVENTING OR TREATING MUSCULAR WEAKNESS-RELATED DISEASES COMPRISING ALVERINE, 4-HYDROXY ALVERINE, DERIVATIVE THEREOF, OR PHARMACEUTICALLY ACCEPTABLE SALT THEREOF” (AVENTI INC., priority 2020, published 2023)

Tests used:
C2C12 cells [1] = assay: Myotube atrophy induced by C26 cancer cell conditioned medium (cachexia model); type: cell-based, mouse; settings: 1 μM; differentiation media with 33% CM, 3 days
Experimental: In order to confirm a cachexia treatment effect of alverine citrate and 4-hydroxy alverine, an experiment mimicking a tumor-growth environment by treatment of a cancer cell conditioned medium (CM) was conducted as an ex vivo approach. First, cancer cell CM was prepared using a C26 cancer cell line. Here, as cancel cell growth media (GM), RPMI1640 media supplemented with 10% fetal bovine serum was used. The C26 cancer cell line was cultured using a 100 mm cell culture plate and the cancer cell GM. Here, the media were removed when cell confluency reached 90%. Then, after washing with phosphate buffer (1× buffer), the prepared differentiation media were treated following the same process as in Example 1. After 24 hours, a C26 cancer cell line CM was obtained and filtered using bottle top filters (Thermo, PES, 1 L) before use.
C2C12 cells were dispensed in a 6-well plate treated with the GM of Example 1.1 at a concentration of 5×10^5 cells per plate and after 24 hours, were replaced with DMEM media supplemented with 5% HS and induced for differentiation. […] Here, by treating the experimental groups with 1 μM alverine citrate (AC) and 4-hydroxy alverine (4HA), the effect of suppressing myotube atrophy was evaluated. […] Following the same method as in Example 1.2, by florescent staining using antibodies against MyHC, the expression amount of MyHC was measured.

C2C12 cells [2] = assay: Promotion of differentiation of myoblasts (MyHC fluorescent staining); type: cell-based, mouse
Experimental: C2C12 (American Type Culture Collection, CRL-1772™) cells are a myoblast cell line obtained from C3H mouse and is used in myoblast differentiation research. The C2C12 cells were cultured using growth media, and then cultured using differentiation media for differentiation induction. Here, DMEM supplemented with 10% fetal bovine serum was used as growth media (GM), and DMEM supplemented with 5% horse serum (HS) was used as differentiation media (DM). In order to confirm the effect of alverine citrate on promoting the differentiation of myoblasts, C2C12 cells were dispensed in the GM of Example 1.1 and cultured for 24 hours, and then the C2C12 cells were treated with DMSO, insulin, or alverine citrate, and induced for differentiation over 3 days. […] Here, the DMSO, insulin and alverine citrate used in the experiment were all purchased from Sigma-Aldrich. The group treated with insulin was used as the positive control group. In particular, C2C12 cells were dispensed in a 6-well plate treated with the GM of Example 1.1 at a concentration of 5×10^5 cells per plate and after 24 hours, were replaced with DMEM media supplemented with 5% HS and induced for differentiation. Thereafter, the cells were treated with DMSO, insulin (1.72 μM) or alverine citrate (0.01 μM, 0.1 μM, 1 μM or 10 μM). After 3 days, after removing the media, the cells were washed with phosphate buffer solution (1× PBS) and treated with paraformaldehyde (4%) and fixed at room temperature for 15 minutes. Then, after washing three times with phosphate buffer solution (1× PBS), PBS containing 0.3% triton X-100 was treated with permeabilization buffer and allowed to react at room temperature for 10 minutes. After washing three times with phosphate buffer solution (1× PBS), PBST (blocking buffer, PBS containing 0.5% Tween 20) containing 2% bovine serum albumin was administered and allowed to react for 30 minutes to suppress nonspecific binding of antibodies. After washing with phosphate buffer (1× PBS) three times, 100 μL of primary antibodies (SC-20641, Santa Cruz Biotechnology) to MYH3 diluted to 1:500 were added and allowed to react at room temperature for 1 hour. Thereafter, after washing with phosphate buffer (1× PBS) three times, 100 μL of secondary antibodies (Goat anti-Rabbit IgG-HRP) diluted to 1:5,000 were added and allowed to react at room temperature for 1 hour. After 1 hour, for nuclear staining, after washing with phosphate buffer (1× PBS) three times, the blocking buffer was treated with diluted DAPI dye and allowed to react at room temperature for 10 minutes. Thereafter, after washing with phosphate buffer (1× PBS) three times, the washed cover glass was measured for absorbance at a wavelength of 450 nm and a fluorescent image was taken using a fluorescence microscope. The anti-MyHC antibody stained area was analyzed using imageJ (Java-based image processing program). To confirm the effect of 4-hydroxy alverine on promoting myoblast differentiation, following the same method as Example 1, DMSO, insulin (1.72 μM), alverine citrate (0.01 μM, 0.1 μM, 1 μM or 10 μM), 4-hydroxy alverine (0.01 μM, 0.1 μM, 1 μM or 10 μM) were each administered, and differentiation to myotubes and changes in myotube thickness and diameter were observed.

C2C12 cells [3] = assay: Effect of alverine derivatives on promoting myoblast differentiation; type: cell-based, mouse; settings: 1 μM, 4 days; compared with DMSO alone
Experimental: C2C12 (American Type Culture Collection, CRL-1772™) cells are a myoblast cell line obtained from C3H mouse and is used in myoblast differentiation research. The C2C12 cells were cultured using growth media, and then cultured using differentiation media for differentiation induction. Here, DMEM supplemented with 10% fetal bovine serum was used as growth media (GM), and DMEM supplemented with 5% horse serum (HS) was used as differentiation media (DM).
In order to confirm the effect of an alverine derivative on promoting the differentiation of myoblasts, C2C12 cells were dispensed in the GM of Example 1.1 and cultured for 24 hours. Then, the C2C12 cells were treated with DMSO (Sigma-Aldrich), insulin, alverine (Sigma-Aldrich), or 27 types of alverine derivatives, each at a concentration of 1 μM and were induced for differentiation over 4 days. […]
After washing three times with phosphate buffer (1× PBS), PBST (blocking buffer, PBS containing 0.5% Tween 20) containing 2% bovine serum albumin was administered and allowed to react for 30 minutes to suppress nonspecific binding of antibodies. […] Thereafter, after washing with phosphate buffer (1× PBS) three times, the washed cover glass was measured for absorbance at a wavelength of 450 nm and a fluorescent image was taken using a fluorescence microscope.

sarcopenia-induced mice = assay: Running ability test, sarcopenia-induced mouse; type: in vivo; settings: hindlimb-immobilized mice; oral 150 mg/kg/day (AC-H); compared with normal mouse
Experimental: Running ability was measured using a treadmill designed specific for this experiment. First, aversive stimuli were provided by letting electric stimuli flow at the starting point. Before the measurement, the mice were acclimatized at 8 m/min for 10 minutes. The running time was recorded by allowing mice in each group to run in separate lanes until exhaustion. Exhaustion was defined such that when the mouse stays outside the lanes for 10 seconds or more without running, the mouse was determined to be exhausted and the time was recorded. It was not possible to repeat this experiment on the same mouse. The mouse was placed on the treadmill and the test was started at 8 rpm, and the speed was accelerated by 2 rpm every 10 minutes to a maximum speed of 20 rpm. The slope of the lane started from a zero-degree incline and then was elevated to a five-degree incline after 30 min from the start. In order to confirm a muscle strength enhancement effect of alverine citrate, sarcopenia-induced mice were administered with alverine citrate and tested for running ability. After the treadmill running test, muscle weight was measured. In particular, the hindlimb of 10 week-old C57BL/6 male mice was immobilized using a surgical stapler (Autosuture Royal 35W stapler). […] After that, running ability was measured. […] Running ability was measured by the same method as in Example 2.2.

With `CCN(CCCc1ccccc1)CCCc1ccc(O)cc1` [4-hydroxy alverine, 4-[3-[ethyl(3-phenylpropyl)amino]propyl]phenol] the myotube atrophy (C2C12 cells [1]) was “myotube atrophy was suppressed”, the “differentiation of myoblasts to myotubes” value (C2C12 cells [2]; compared with DMSO or insulin (1.72 μM), 0.01-10 μM) was “more differentiated to myotubes” and the differentiation promoting effect (C2C12 cells [2]; compared with alverine at the same concentration) was “superior differentiation promoting effect than alverine”.
`CCN(CCCc1ccccc1)CCCc1ccccc1` [Alverine, N-ethyl-3-phenyl-N-(3-phenylpropyl)propan-1-amine] was tested, and the “differentiation of myoblasts to myotubes” value (C2C12 cells [3]) was “promoted the differentiation to myotubes” and the running time (sarcopenia-induced mice) was “increased compared to the normal mouse”.
In the case of “insulin: positive control group, purchased from Sigma-Aldrich”, the “differentiation of myoblasts to myotubes” value (C2C12 cells [2]; compared with DMSO alone, 3 days, insulin 1.72 μM, alverine citrate 0.01-10 μM) was “more differentiated to myotubes”.
